The record followed here is ChEMBL document CHEMBL4265952, “One-pot, multi-component synthesis and structure-activity relationships of peptoid-based histone deacetylase (HDAC) inhibitors targeting malaria parasites” (Eur J Med Chem, 2018).

Where only a bound is given, the exact number is not on record here.

The target of one series is Histone deacetylase 1 (Homo sapiens, UniProt Q13547). As to the kind of experiment: Inhibition of recombinant full length human C-terminal His/FLAG tagged HDAC1 expressed in baculovirus infected Sf9 insect cells using ZMAL as substrate measured after 90 mins by fluorescence assay.
Series [1] addresses T1, Protein deacetylase HDAC6 (Homo sapiens, UniProt Q9UBN7).
T1 sequence (Q9UBN7 whole entry): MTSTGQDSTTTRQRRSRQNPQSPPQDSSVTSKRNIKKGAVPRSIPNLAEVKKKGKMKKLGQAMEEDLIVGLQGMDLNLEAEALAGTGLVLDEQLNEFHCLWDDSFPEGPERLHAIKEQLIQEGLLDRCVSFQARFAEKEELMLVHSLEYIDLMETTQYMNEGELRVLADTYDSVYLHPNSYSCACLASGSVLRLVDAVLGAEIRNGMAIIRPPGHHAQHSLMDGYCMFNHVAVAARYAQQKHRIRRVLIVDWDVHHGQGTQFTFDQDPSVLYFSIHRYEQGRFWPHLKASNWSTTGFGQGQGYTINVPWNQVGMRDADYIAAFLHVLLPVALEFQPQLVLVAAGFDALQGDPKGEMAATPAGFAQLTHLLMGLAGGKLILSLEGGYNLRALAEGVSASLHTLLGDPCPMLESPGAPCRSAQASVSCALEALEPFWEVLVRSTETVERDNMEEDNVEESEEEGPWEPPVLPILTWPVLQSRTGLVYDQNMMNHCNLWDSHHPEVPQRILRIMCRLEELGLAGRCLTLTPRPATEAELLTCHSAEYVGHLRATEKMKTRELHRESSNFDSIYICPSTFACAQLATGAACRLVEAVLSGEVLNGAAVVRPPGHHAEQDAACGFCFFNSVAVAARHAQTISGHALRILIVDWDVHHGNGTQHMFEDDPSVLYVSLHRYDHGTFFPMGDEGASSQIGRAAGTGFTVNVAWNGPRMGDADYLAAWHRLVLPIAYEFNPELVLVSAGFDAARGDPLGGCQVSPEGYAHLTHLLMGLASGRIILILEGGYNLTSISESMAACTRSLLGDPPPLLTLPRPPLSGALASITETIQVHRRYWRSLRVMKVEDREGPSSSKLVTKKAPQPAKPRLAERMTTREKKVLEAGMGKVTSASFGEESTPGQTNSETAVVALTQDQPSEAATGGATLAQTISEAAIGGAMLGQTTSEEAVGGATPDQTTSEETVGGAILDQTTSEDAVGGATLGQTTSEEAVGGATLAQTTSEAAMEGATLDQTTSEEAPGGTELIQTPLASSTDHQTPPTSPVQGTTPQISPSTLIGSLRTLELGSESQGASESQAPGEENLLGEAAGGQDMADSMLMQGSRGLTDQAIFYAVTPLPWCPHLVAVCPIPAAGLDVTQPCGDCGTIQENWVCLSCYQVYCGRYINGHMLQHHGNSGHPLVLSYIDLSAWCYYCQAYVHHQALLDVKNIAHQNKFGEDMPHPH
As to the kind of experiment: Inhibition of recombinant full length human N-terminal GST-tagged HDAC6 expressed in baculovirus infected Sf9 insect cells using ZMAL as substrate measured after 90 mins by fluorescence assay.

A short description of series [2]: Cytotoxicity against human HepG2A16 cells expressing GFP-fused CD81 after 48 hrs by bioluminescence assay. The note with it: HepG2A16, 48 h.
Series [3] has as its system Plasmodium falciparum. As to the kind of experiment: Gametocytocidal activity against transgenic GFP-fused Plasmodium falciparum NF54 early stage gametocytes after 72 hrs by Mitotracker Red CMH2XRos staining based imaging method. Type of series: functional, organism-based. The note with it: NF54, 72 h.
The subject of series [4] is Plasmodium falciparum. As to the kind of experiment: Gametocytocidal activity against synchronized Plasmodium falciparum NF54 mature stage 5 gametocytes after 48 hrs by ATP bioluminescence assay. Conditions: NF54, 48 h. It counts as functional, organism-based.
The subject of series [5] is Plasmodium falciparum. As to the kind of experiment: Gametocytocidal activity against transgenic GFP-fused Plasmodium falciparum NF54 late stage gametocytes after 72 hrs by Mitotracker Red CMH2XRos staining based imaging method. Type of series: functional, organism-based. Conditions: NF54, 72 h.
The test system of the next series is Plasmodium berghei. As to the kind of experiment: Antiplasmodial activity against exo-erythrocytic stage of GFP-Luc-fused Plasmodium berghei ANKA infected in human HepG2 cells after 48 hrs by bioluminescence assay. The note with it: HepG2, 48 h.
Series [6] relates to Plasmodium falciparum. As to the kind of experiment: microbe, parasite or virus in culture. Conditions: Dd2, 3 h.
Description: Antiplasmodial activity against multidrug-resistant asexual ring stage Plasmodium falciparum Dd2 infected in human erythrocytes by [3H]-hypoxanthine incorporation assay
The test system of series [7] is NFF. As to the kind of experiment: cells. Conditions: Homo sapiens.
Description: Cytotoxicity against human NFF cells
Series [8] deals with Plasmodium falciparum. As to the kind of experiment: Antiplasmodial activity against Plasmodium falciparum.
Series [9] in a line: Selectivity index, ratio of IC50 for human HepG2A16 cells to IC50 for exo-erythrocytic stage of GFP-Luc-fused Plasmodium berghei ANKA infected in human HepG2 cells.
The subject of series [10] is Plasmodium falciparum. As to the kind of experiment: Gametocytocidal activity against transgenic GFP-fused Plasmodium falciparum NF54 late stage gametocytes at 40 uM after 72 hrs by Mitotracker Red CMH2XRos staining based imaging method relative to control. Type of series: functional.
Another series deals with HEK293. As to the kind of experiment: Cytotoxicity against HEK293 cells after 48 hrs by resazurin dye based assay. Conditions: Homo sapiens, HEK293, 48 h. Type of series: ADME, cell-based. (In general: Alamar Blue is a resazurin reagent that responds to reducing activity.)
In series [11] the test system is Plasmodium falciparum. It counts as functional, organism-based. The note with it: 3D7.
In series [12] the test system is Plasmodium falciparum. It counts as functional, organism-based. The note with it: Dd2.
In series [13] the test system is NFF. It counts as ADME, cell-based. Conditions: Homo sapiens, 72 h.
Series [14] relates to Plasmodium falciparum. As to the kind of experiment: microbe, parasite or virus in culture. Conditions: 3D7, 3 h.
Description: Antiplasmodial activity against drug-sensitive asexual ring stage Plasmodium falciparum 3D7 infected in human erythrocytes by [3H]-hypoxanthine incorporation assay
Series [15] is described as follows: in vitro. Conditions: human.
Description: Selectivity index, ratio of IC50 for human NFF cells to IC50 for drug-sensitive asexual ring stage Plasmodium falciparum 3D7 infected in human erythrocytes
Series [16] in a line: in vitro. Conditions: human. The source holds these as a separate data set.
Description: Selectivity index, ratio of IC50 for human NFF cells to IC50 for multidrug-resistant asexual ring stage Plasmodium falciparum Dd2 infected in human erythrocytes

The term IC50 denotes the concentration that inhibits the measured activity by half.

Sequence of Histone deacetylase 1 (Q13547 whole entry): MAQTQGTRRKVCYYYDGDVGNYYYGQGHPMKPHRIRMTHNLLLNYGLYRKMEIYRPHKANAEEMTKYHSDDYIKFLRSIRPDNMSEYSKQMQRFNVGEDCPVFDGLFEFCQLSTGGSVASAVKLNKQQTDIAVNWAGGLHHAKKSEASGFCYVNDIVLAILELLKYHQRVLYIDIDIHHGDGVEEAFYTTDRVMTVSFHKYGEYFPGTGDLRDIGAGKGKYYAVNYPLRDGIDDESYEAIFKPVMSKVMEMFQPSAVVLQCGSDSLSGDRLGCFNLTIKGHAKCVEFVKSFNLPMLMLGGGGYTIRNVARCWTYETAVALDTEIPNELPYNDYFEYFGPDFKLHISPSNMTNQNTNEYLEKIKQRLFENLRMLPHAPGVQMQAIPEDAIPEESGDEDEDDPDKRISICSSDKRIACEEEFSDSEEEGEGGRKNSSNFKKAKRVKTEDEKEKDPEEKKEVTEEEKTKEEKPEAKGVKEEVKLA

Regarding `CC(C)c1ccc(C(=O)N(CC(=O)NC2CCCCC2)Cc2ccc(C(=O)NO)cc2)cc1`, the results for the IC50 (at Histone deacetylase 1; in series [1]) were 86 nM and 64 nM, respectively.

For `O=C(CN(Cc1ccc(C(=O)NO)cc1)C(=O)c1cccc2ccccc12)NC1CCCCC1`, the IC50 at Histone deacetylase 1 stood at 552 nM.

`Cc1ccc(NC(=O)CN(Cc2ccc(C(=O)NO)cc2)C(=O)c2ccc(N(C)C)cc2)cc1`: the IC50 on Histone deacetylase 1 came to 80 nM.

Take `Cc1ccc(NC(=O)CN(Cc2ccc(C(=O)NO)cc2)C(=O)c2cc(C)cc(C)c2)cc1`: the IC50 came to 21400 nM in [2]; 7600 nM in the series on Plasmodium falciparum [3]; 10100 nM in the series on Plasmodium falciparum [4]; 7280 nM with Plasmodium falciparum [5]; 5550 nM in the series with Plasmodium berghei; 27 nM in the series on Plasmodium falciparum [6]. In the series with NFF [7], the IC50 is > 10000 nM.

Compound `CN(C)c1ccc2nc3ccc(N(C)C)cc3[s+]c2c1` [METHYLENE BLUE ANHYDROUS] yielded an IC50 in the series with Plasmodium falciparum [4] of 480 nM.

`CC(/C=C/C(=O)NO)=C\[C@@H](C)C(=O)c1ccc(N(C)C)cc1` [TRICHOSTATIN] had an IC50 with Plasmodium falciparum [8] of 8 to 11 nM.

Regarding `O=C1C(O)=C([C@H]2CC[C@H](c3ccc(Cl)cc3)CC2)C(=O)c2ccccc21` [ATOVAQUONE], the 50% inhibitory concentration (IC50) in [2] is > 500 nM; with Plasmodium berghei it was 0.014 nM. For the same compound, the selectivity ratio in series [9] was > 35000.

Regarding `Cc1ccc(C(=O)N(CC(=O)NC(C)(C)C)Cc2ccc(C(=O)NO)cc2)cc1C`, the IC50 on Histone deacetylase 1 amounted to 428 nM; in series [1], 57 nM. The compound further had an Activity with Plasmodium falciparum [10] of 92%.

On to `Cc1[nH]c2ccccc2c1CCNCc1ccc(/C=C/C(=O)NO)cc1` [PANOBINOSTAT], for which the IC50 in the series on HEK293 lay within 70 to 180 nM; with Plasmodium falciparum [11], 10 to 30 nM; in the series with Plasmodium falciparum [12], 10 to 30 nM; in the series on NFF [13], 70 to 180 nM.

Consider `CCCCNC(=O)CN(Cc1ccc(C(=O)NO)cc1)C(=O)c1ccc(N(C)C)cc1`, for which the results for the IC50 (on Histone deacetylase 1; in series [1]) were 40 nM and 35 nM, respectively.

In the case of `COc1ccc2nc3cc(Cl)ccc3c(Nc3cc(CN4CCCC4)c(O)c(CN4CCCC4)c3)c2n1` [PYRONARIDINE], the values for the IC50 in the series with Plasmodium falciparum [3] and with Plasmodium falciparum [5] were 29 nM and 1710 nM, respectively.

In the case of `Cc1ccc(C(=O)N(CC(=O)NC2CCCCC2)Cc2ccc(C(=O)NO)cc2)cc1C`, the IC50 at Histone deacetylase 1 was found to be 304 nM.

In turn, `CC[C@H](C)[C@H](NC(=O)[C@H]([C@@H](C)CC)N(C)C(C)=O)C(=O)N[C@H](C(=O)N[C@@H](CC(C)C)C(=O)[C@@]1(C)CO1)[C@@H](C)O` [EPOXOMYCIN] returned an IC50 in the series with Plasmodium falciparum [4] of 7 nM.

With `Cc1ccc(NC(=O)CN(Cc2ccc(C(=O)NO)cc2)C(=O)c2cccc3ccccc23)cc1`, the IC50 with Plasmodium falciparum [6] is 33 nM; in the series with Plasmodium falciparum [14] it was 39 nM; in the series on NFF [7], > 10000 nM. In addition, the selectivity ratio in “in vitro [15]” and in “in vitro [16]” was 256 to 303 each time.

Turning to `O=C(/C=C/c1cccc(S(=O)(=O)Nc2ccccc2)c1)NO` [BELINOSTAT], the IC50 is 1420 to 2370 nM with HEK293, 60 to 130 nM in the series on Plasmodium falciparum [11], 60 to 130 nM with Plasmodium falciparum [12] and 1420 to 2370 nM with NFF [13].
